From patent US5484725A, “Norbornane type ester hydrolase from Acetobacter pasteurianus” (Shionogi & Co., Ltd., priority 1993, dated 1996)

How the values were obtained:
[1] = test system: E. coli JM103 including the plasmid pUNA-Hf; test: Optically selective deacetylation of exo-norbornyl acetate by E. coli JM103/pUNA-Hf cell suspension; format: cell-based; conditions: 1% substrate, 30° C., 15 minutes
Protocol: (±)-Exo-norbornyl acetate used as a substrate was optically selectively deacetylated by E. coli JM103 including the plasmid pUNA-Hf as follows. The bacterial cells were collected from the cultured broth of E. coli JM103/pUNA-Hf as mentioned above by centrifugation, and suspended in an equal volume of a 0.1M phosphate buffer (pH 7.0). Then, 1% (±)-exo-norbornyl acetate was added to 1.5 ml of the obtained suspension, and the reaction was conducted at 30° C. for 15 minutes. The resultant reaction mixture was analyzed by the method described in item 5 of Example 2.

[2] = test system: E. coli JM109 transformed by using the plasmid pUNA-Hf; test: Hydrolysis of (±)-exo-norbornyl acetate by transformant E. coli JM109 with pUNA-Hf; format: cell-based; conditions: 1% substrate, 30° C., 10 minutes
Protocol: E. coli JM109 was transformed by using the plasmid pUNA-Hf. […] Then, the transformant was mixed with a 1% (±)-exo-norbornyl acetate mixture and allowed to stand at 30° C. for 10 minutes. The resulting mixture was analyzed by the method described in item 5 of Example 2. […] Thus, the optical selectivity was confirmed to be as high as that of the enzyme derived from Acetobacter pasteurianus obtained in Example 1.

[3] = test system: norbornane type ester hydrolase; test: Optically selective hydrolysis of (±)-exo-norbornane type esters by purified enzyme, optical resolution GC; format: biochemical, Acetobacter pasteurianus ATCC 12873; conditions: 1% ester, 30° C., 30 minutes
Protocol: Various kinds of the (±)-exo-norbornane type esters respectively comprising formyl, acetyl, propionyl, n-butyryl or isobutyryl as the acyl R in formula I were allowed to come in contact with an enzyme solution, respectively as a substrate. Each of the obtained products was extracted with an equal volume of chloroform. The extract was analyzed by gas chromatography using a column for optical resolution (produced by J & W Scientific). (-)-Norborneol was selectively produced in all the extracts. […] In detail, referring to FIG. 1, (+)-(1S, 2S, 4R)-exo-norbornyl acetate is hydrolysed to the corresponding (-)-norborneol by the use of the present enzyme. The obtained (-)-norborneol can be converted to (+)-d-norcamphor by oxidation. The remaining (-)-(1R, 2R, 4S)-exo-norbornyl acetate can be hydrolysed to the corresponding (+)-norborneol by the use of an alkali. The obtained (+)-norborneol can be converted to (-)-d-norcamphor by oxidation.
The purified enzyme obtained in Example 1 was allowed to come in contact with various kinds of 1% (±)-exo-norbornane type esters respectively including formyl, acetyl, propionyl, n-butyryl and isobutyryl as the acyl R in formula I. The reaction was conducted at 30° C. for 30 minutes. The resultant was extracted with an equal volume of chloroform. The extract was analyzed by gas chromatography using a column for optical resolution (produced by J & W Scientific). As is apparent from the results shown in Table 2, (-)-norborneol was enantio-selectively produced from any of the esters.

[4] = test system: norbornane type ester hydrolase; test: Effect of inhibitors on the enzyme (pNPA method); format: biochemical, Acetobacter pasteurianus ATCC 12873; conditions: 5 mM inhibitor, phosphate buffer pH 7.0, 30° C., 2 hours, then pNPA method
Protocol: The present enzyme was allowed to stand in phosphate buffers respectively including various inhibitors (5 mM) at pH 7.0 for 2 hours. Then, the activity of the enzyme was measured by the method described in item 3.
The above-mentioned activity measurement was performed with regard to 0.5 ml of the enzyme solution of 0.1M phosphate buffer (pH 7.0) containing 5 mM of one of the following inhibitors: ethylenediaminetetraacetic acid (EDTA), phenylmethylsulfonylfluoride (PMSF), N-tosyl-L-phenylalanyl chloromethyl ketone (TPCK), N-tosyl-L-lysyl chloromethyl ketone (TLCK), diisopropyl fluorophosphate (DFP), N-ethylmaleimide and iodoacetic acid. The enzyme solutions, including the respective inhibitors, were allowed to stand at 30° C. for 2 hours.

| Structure (SMILES) | (+)-exo-norborneol produced [1] [mg/mL] | (-)-exo-norborneol produced [1] [mg/mL] | (+)-exo-norborneol produced [2] [mg/mL] | (-)-exo-norborneol produced [2] [mg/mL] | Produced norborneol (+)-isomer [3] [mg/mL] | Produced norborneol (-)-isomer [3] [mg/mL] | inhibition of the enzyme by inhibitor [4] |
| --- | --- | --- | --- | --- | --- | --- | --- |
| CC(=O)O[C@H]1C[C@@H]2CC[C@H]1C2 (relative stereo) [Acetyl, (±)-exo-norbornyl acetate] | 0.15 | 1.91 | 0.15 | 1.68 | 0.19 | 2.48 | – |
| O=CO[C@H]1C[C@@H]2CC[C@H]1C2 (relative stereo) [Formyl] | – | – | – | – | 0.15 | 1.49 | – |
| CCC(=O)O[C@H]1C[C@@H]2CC[C@H]1C2 (relative stereo) [Propionyl] | – | – | – | – | 0.45 | 3.39 | – |
| CC(C)C(=O)O[C@H]1C[C@@H]2CC[C@H]1C2 (relative stereo) [isobutyryl] | – | – | – | – | 0.69 | 2.76 | – |
| CCCC(=O)O[C@H]1C[C@@H]2CC[C@H]1C2 (relative stereo) [n-butyryl] | – | – | – | – | 0.29 | 2.30 | – |
| O=S(=O)(F)Cc1ccccc1 [PMSF, phenylmethylsulfonylfluoride] | – | – | – | – | – | – | completely inhibited |
